These results are taken from patent EP2632470B1 (priority 2010, dated 2012).

For orientation: IC50 means the midpoint of a concentration-inhibition curve.

Structures can show the parent of a compound that is named as a salt.

The test system of one assay is Malassezia furfur. Kind of assay: Intrinsic anti-Malassezia potency, growth inhibition by optical density. It counts as cell-based. As to conditions: Malassezia furfur, read-out: Intrinsic Anti-Malassezia Potency (IC50, µM). The method, then:
To measure the growth inhibition properties of test materials against Malassezia, we carried out the following protocol.
Starting cultures are prepared by incubating with shaking at 31°. Cells (5 ml of culture) are collected by centrifugation and suspended in 50 ml fresh mDixon medium. […] The plates are shaken vigorously on a Heidolph Titramax 100 overnight at 31°. To increase the humidity, water-soaked cotton batting is placed over the plates.
As a control, the optical density of untreated M. furfur is measured after overnight incubation. As another control, the optical density of the starting culture is measured. The difference between these optical densities represents the amount of growth of M. furfur.
On to `N[C@@H](COP(=O)(O)O)C(=O)O` [L-2-Amino-3-phosphopropanoic acid], for which the half-maximal inhibitory concentration (IC50) is > 500 µM.
Consider `O=C(O)CN(CCN(CC(=O)O)CC(=O)O)CC(=O)O` [Ethylenediaminetetraacetic acid (EDTA), Ethylenediaminetetraacetic acid], for which the IC50 is > 500 µM.
On the same count and under the same terms, in the case of `O=C(O)CN(CC(=O)O)[C@@H]1CCCC[C@H]1N(CC(=O)O)CC(=O)O` (relative stereo) [trans-1,2-Cyclohexylenedinitrilotetraacetic acid] it was 500 µM; in that of `CCC(NCCNC(CC)C(=O)O)C(=O)O` (stereo not shown) [Ethylenediiminodi-2-butanoic acid], > 500 µM; in that of `CC(C)c1cccc(O)c(=O)c1` [1-Hydroxy-4-(1-methylethyl)cyclohepta-3,5,7-trien-2-one], 65 µM.

Still in this assay, the particulars now being: Malassezia furfur; mDixon medium, overnight at 31°, optical density 600 nm; read-out: Intrinsic Anti-Malassezia Potency (IC50).
Take `Oc1c(I)cc(Cl)c2cccnc12` [5-Chloro-8-hydroxy-7-iodoquinoline]: the IC50 amounted to 65.5 µM.
Take `Oc1cccc2cccnc12` [8-hydroxyquinoline]: the half-maximal inhibitory concentration (IC50) turned out to be 138 µM.
Same read-out and setting: next, `NCCc1ccccn1` [2-(2-aminoethyl)-pyridine]: > 500 µM; `c1ccc(CN(CCN(Cc2ccccn2)Cc2ccccn2)Cc2ccccn2)nc1` [N,N,N',N-tetrakis(2-pyridylmethyl) ethylenediamine]: 71 µM; `c1ccc(-c2cccc(-c3ccccn3)n2)nc1` [2,2':6',2"-terpyridine]: 86 µM.
Same read-out and setting: next, `O=C(O)CN1CCCN(CC(=O)O)CCN(CC(=O)O)CCCN(CC(=O)O)CC1` [1,4,8,11-Tetraazacyclotetradecane-N,N',N",N'''-tetraacetic acid]: > 500 µM; `Cc1c(O)c(=O)ccn1C` [3-Hydroxy-1,2-dimethyl-4(1H)-pyridone]: 719 µM.
On the same count and under the same terms, next, `c1cnc2c(c1)ccc1cccnc12` [1,10-Phenanthroline]: 166 µM; `NCCC(=O)N[C@@H](Cc1c[nH]cn1)C(=O)O` [beta-Alanyl-L-histidine (L-Carnosine), beta-Alanyl-L-histidine]: > 500 µM; `S=C(N=Nc1ccccc1)NNc1ccccc1` [1,5-Diphenyl-1,2,4,5-tetraazapent-1-en-3-thione]: 62.5 µM.
For `C1CNCCNCCNCCNCCNCCN1` [1,4,7,10,13,16-Hexaazacyclooctadecane], the IC50 is > 500 µM.
On to `Oc1c(Cl)cc(Cl)c2cccnc12` [5,7-dichloro-8-hydroxyquinoline], for which the IC50 worked out at 23.4 µM.
On the same count and under the same terms, in the case of `Oc1ccc2ccccc2c1N=Nc1nccs1` [1-(2-Thiazoylazo)-2-naphthol] it was 250 µM; in that of `O=c1cc(CO)occ1O` [kojic acid], 704 µM.
Same read-out and setting: next, `Cc1ccc2ccc3ccc(C)nc3c2n1` [2,9-dimethyl-1,10-phenanthroline]: > 480 µM.
On the same count and under the same terms, next, `Oc1ccc(N=Nc2nccs2)c(O)c1` [4-(2-thiazolylazo)-resorcinol]: > 900 µM.
Regarding `CCCCCCCCOc1cccc(=O)n1O` [HP-101, N-Hydroxy-6-octyloxypyridine-2(1H)one, ethanolamine salt], the IC50 stood at 54.6 µM.
Same read-out and setting: in the case of `Cc1occc(=O)c1O` [maltol] it was 793 µM; in that of `O=C(O)CN(CCO)CCO` [N,N-Bis(2-hydroxyethyl)glycine (Bicine), N,N-Bis(2-hydroxyethyl)glycine], > 500 µM.

The assay is the same for the next values; noted with them: comment on Table 1 data.
With `O=C(O)CN(CCN(CC(=O)O)CC(=O)O)CC(=O)O` [Ethylenediaminetetraacetic acid (EDTA), Ethylenediaminetetraacetic acid], the “anti-fungal effectiveness (in words)” value was “not to be effective”.

Still in this assay, the particulars now being: mDixon medium, overnight at 31°, optical density 600 nm; read-out: Intrinsic Anti-Malassezia Potency (IC50).
Take “zinc salt of 1-hydroxy-2-pyridinethione [Zinc Pyrithione]”: the half-maximal inhibitory concentration (IC50) amounted to 15 µM.

The subject of a further assay is M. furfur 7982. Kind of assay: Fractional Inhibitor Concentration (FIC) test of chelator combined with ZPT. The assay is classed as cell-based. As to conditions: combination with ZPT (from 12.5ppm); chelator from 400ppm or 800ppm; 33°C, 2 days; average of duplicate plates. From the text: Fractional Inhibitor Concentration (FIC) is a conventional methodology for evaluating antimicrobial interactions. In an embodiment of the present invention, an FIC is used to determine combinatorial effects of two chemicals on anti-Malassezia activity in a tissue culture setting.
• 1. Each FIC assay is run in duplicate. • 2. Low levels of M. furfur 7982 cells are inoculated into each well of a 96 well plate. • 3. Chemical #1 (in our assays, this is always ZPT) is titrated (2x concentration reductions) from right to left across each row of the plate, starting at 12.5ppm final concentration and ending at 0ppm. • 4. […] Plates are incubated at 33°C, 60%RH for 2 days with agitation. • 6. Optical densities (OD's) are then determined using a spectrophotometer.
1. […]. The lowest concentration value of chemical #1, both by itself and with the lowest concentration of chemical #1 which boosts chemical #2's potency, that inhibit growth are determined (see Appendix 1). 4. Likewise, the lowest concentration of chemical #2, both by itself and with the lowest concentration of chemical #2 that boosts chemical #1's potency, that inhibit growth are determined (see Appendix 1). 5. The FIC value for the duplicate plates is determined using the calculations below: FIC = (lowest inhibitory dose of Chemical#1 by itself)/(inhibitory dose of Chemical#1 in a well that also contains Chemical#2also contains Chemical#1) + (lowest inhibitory dose of Chemical#2by itselflowest)/(lowest inhibitory dose of Chemical#2in a well that) [formula] ave FIC VALUE = (FIC value for plate 1+FIC value for plate2); 2 [formula] 6. The average FIC value is then determined, and the combinatorial effect of the two chemicals is classified according to the chart below: […]
As to `O=C1c2cccc3cccc(c23)C(=O)N1O` [N,N-Naphthaloylhydroxylamine], the FIC came to 0.8.
As for `Cc1occc(=S)c1O` [Thiomaltol], the FIC is 0.8.
“1,2-Dimethyl-3-hydroxy-4-pyridone, Zinc salt”: the FIC turned out to be 0.5.
Still for that read-out and setting: next, Benzohydroxamic acid, Zinc Salt: 0.3; “N-Hydroxy-6-octyloxypyridine-2(1H)one, zinc salt [HP-100 Zn]”: 0.7.
The same measure, in the same setting: in the case of Maltol, Zinc salt it was 0.1; in that of `CCCCCCCCOc1cccc(=O)n1O` [HP-101, N-Hydroxy-6-octyloxypyridine-2(1H)one, ethanolamine salt], 0.62.
Still for that read-out and setting: next, Thiomaltol, Zinc salt: 0.5.
